Laboratory results reported in patent US9932561B2, “Differentiating induced pluripotent stem cells into glucose-responsive, insulin-secreting progeny” (Mayo Foundation for Medical Education and Research, priority 2011, dated 2018).
Where no end group is shown, it is not given here.

Key:
Type in all cases: cell-based, human
[1] = system: iPS-derived definitive endoderm cells; assay: Induction of pancreatic endoderm from iPS-derived definitive endoderm, immunofluorescence for PDX1, NEUROD1, NGN3; details: definitive endoderm cells treated with FGF10, RA and CYC in the presence of ILV; without ILV low levels of PDX1 expression
Method: For immunostaining, iPS cells were fixed for 20 minutes at room temperature (RT) in 4% paraformaldehyde (PFA) in PBS, washed in PBS, and blocked for 30 minutes with 5% FBS in PBST (PBS with 0.1% Tween-20 (Sigma). Cells were stained with primary antibodies overnight at 4° C., rinsed by PBS, and incubated with secondary antibodies 1 hour at RT (Martinez-Fernandez et al., Circ. Res., 105:648-656 (2009)). Cells at different stages of differentiation were fixed and stained with primary and secondary antibodies. Primary and secondary antibodies used for characterization of iPS and derived cells were: SSEA-1, SSEA-4, TRA-1-60, TRA-1-81 (Millipore #SCR001), OCT4 (Cell Signaling Technology #2750), SOX2 (Cell Signaling Technology #2748), KLF4 (Abcam #ab26648), NANOG (Abcam #ab21624), mouse anti-S0X17 (R&D Systems #MAB1924), rabbit anti-HNF3 beta/FOXA2 (Millipore #07-633), rabbit anti-PDX1 (Santa Cruz Biotechnology #sc-25403), rabbit anti-NGN3 (Millipore #AB5684), rabbit anti-NEUROD1 (Abcam #16508), mouse anti-insulin (Sigma #I2018), rabbit anti-C-peptide (Cell Signaling Technology #4593), rabbit anti-Insulin (Cell Signaling Technology #4590), mouse anti-proinsulin C-peptide (Millipore #CBL94), mouse anti-glucagon (Abcam #ab10988), MafA (Santa Cruz Biotechnology #sc-66958), and rabbit anti-somatostatin (Dako #A0566). […]

[2] = system: iPS-derived islet-like clusters; assay: C-peptide release assay, glucose stimulated secretion, ELISA; details: for C-peptide secretion in response to glucose challenge when the agent is left out of the cocktail: HCF#1-derived islet-like clusters differentiated without ILV or without GLP-1, glucose 10 mM and 27.7 mM
Method: (§1) (R&D systems) and 100 ng/mL activin A (Peprotech) in advanced RPMI (A-RPMI, Invitrogen) with Pen/Strep for 1 day, followed by treatment with 100 ng/mL activin A in A-RPMI supplemented with 0.2% FBS (Invitrogen) for two days. At step two, cells were cultured in A-RPMI medium containing 50 ng/mL FGF10 (R&D systems), 0.25 μM KAAD-cyclopamine (CYC), and 2% FBS for 2 days. Cells were then treated with 50 ng/mL FGF10, 0.25 μM CYC, and 2 μM all-trans Retinoic Acid (RA) (Sigma) in DMEM (Invitrogen) supplemented with Pen/Strep, 1× B27 supplement (Invitrogen) for 4 days at step three. Cells were then cultured in the presence of 50 ng/mL FGF10, 300 nM ILV (Axxora), and 55 nM GLP-1 (Sigma) in DMEM with 1 × B27 for 4 days at step four. In step five, differentiation medium included 10 μM DAPT (Sigma) and 55 nM GLP-1 in DMEM with 1× B27 and culture lasted 6 days. Finally, in step six, cells were cultured in the presence of 50 ng/mL hepatocyte growth factor (HGF) (R&D systems), 50 ng/mL Insulin-like growth factor 1 (IGF-1) (R&D systems) and 55 nM GLP-1 in CMRL-1066 medium (Invitrogen) with 1× B27 for 6 days. All experiments were repeated more than three times.
A C-peptide release assay was performed by incubating derived islet-like clusters in Krebs-Ringer solution with bicarbonate and HEPES (KRBH; 129 mM NaCl, 4.8 mM KCl, 2.5 mM CaCl2, 1.2 mM KH2PO4, 1.2 mM MgSO4, 5 mM NaHCO3, 10 mM HEPES, and 0.1% (wt/vol) BSA). […] C-peptide or proinsulin levels were determined using an ultrasensitive C-peptide/proinsulin ELISA kit (Alpco Diagnostics).
C-peptide secretion from iPS-derived islet-like clusters in response to glucose challenge, the critical physiological function of pancreatic beta cells, was analyzed. To determine whether islet-like cells are capable of C-peptide secretion in response to glucose induction, cells were exposed to increasing concentrations of glucose and secreted C-peptide was measured by ELISA. […]

[3] = system: iPS-derived pancreatic endoderm cells; assay: RT-PCR of pancreatic hormone and islet marker genes during guided differentiation; details: following inclusion of GLP-1 with HGF, IGF and DAPT
Method: as §1, with “Finally, in step six, cells were cultured in the presence of 50 ng/mL hepatocyte growth factor (HGF) (R&D systems), 50 ng/mL Insulin-like growth factor 1 (IGF-1) (R&D systems) and 55 nM GLP-1 in CMRL-1066 medium (Invitrogen) with 1× B27 for 6 days. All experiments were repeated more than three times.” left out
To determine the expression of endocrine-specific transcription factors and pancreas-specific genes throughout differentiation, the gene expression pattern was analyzed at each stage of differentiation. RT-PCR detected high levels of FOXA2 expression after 3 days of differentiation, confirming induction of definitive endoderm cells (FIG. 8A). […]

Compound | expression of pancreatic endoderm markers [1] | C-peptide secretion in response to glucose challenge when the agent is left out of the cocktail [2] | C-peptide secretion ([2]; pancreatic endoderm treated with HGF, IGF, Exendin-4 and DAPT, data not shown) | gene expression of pancreatic hormones and islet markers by RT-PCR [3]
CC(C)[C@H]1C(=O)N[C@H](CO)Cc2c[nH]c3cccc(c23)N1C [ILV, indolactam V] | resulted in cells expressing PDX1, NEUROD1, and NGN3 | failed to secrete C-peptide | – | –
Exendin-4 | – | – | failed produce detectable C-peptide secretion | –
glucagon like peptide-1 (HAEGTFTSDVSSYLEGQAAKEFIAWLVKGR; ends and bridges not checked; UniProt P01275 98-127, looked up) [GLP-1, GLP-1 polypeptide (Sigma), used at 55 nM in the differentiation medium] | – | failed to secrete C-peptide | – | positive gene expression of pancreatic hormones
